{
  "source": "patent US11472791B2",
  "about": "(Incyte Corporation, priority 2019, dated 2022)",
  "key": {"[1]": {"test_system": "Rb phosphorylated on serine 780 in CCNE1 amplified COV318 cells", "assay": "CDK2 pRb (S780) HTRF cellular assay", "format": "cell-based", "details": "Homo sapiens, read-out: IC50 in p-RB S780 HTRF cellular assay"}, "[2]": {"test_system": "CCNE1-non-amplified cell lines (COV504, OV56, and Igrov1)", "assay": "Cell cycle analysis by FACS, CCNE1-non-amplified cell lines", "format": "cell-based, human", "details": "for inhibition of proliferation: CCNE1-non-amplified COV504 cells, 16 hours, increasing concentrations, vs DMSO; for percentage of cells at the S phase: COV504, OV56, Igrov1, 16 hours after treatment, compared to DMSO", "description": "(§1) The effect of CDK4/6-inhibition in CCNE1-amplified versus CCNE1-non-amplified cell lines was evaluated.\n(§2) A similar experiment was performed in a larger set of CCNE1-amplified cell lines (COV318 and OVCAR3) and CCNE1-non-amplified cell lines (COV504, OV56, and Igrov1) (FIG. 6).\n(§3) Bulk DNA was stained with DAPI. Compound-treated and DMSO treated control cells were acquired with CytoFlex (Beckman Coulter) and were analyzed using the FlowJo software. For cell cycle analysis of cells with siRNA knockdown, 72 hours after siRNA transfection, cells exposed to 10 μM EdU for 3 hours before detection of Click-iT Alexa Fluor® 647 azide kit."}, "[3]": {"test_system": "CCNE1-amplified cell lines (COV318 and OVCAR3)", "assay": "Cell cycle analysis by FACS, CCNE1-amplified cell lines", "format": "cell-based, human", "details": "for inhibition of proliferation: CCNE1-amplified OVCAR3 cells, 16 hours, increasing concentrations, vs DMSO", "description": "as §1, §2, §3"}, "[4]": {"test_system": "Rb phosphorylation at S780 in CCNE1-non-amplified cell lines (COV504 and OV56)", "assay": "Western blot of Rb phosphorylation at S780, CCNE1-non-amplified cell lines", "format": "cell-based, human", "details": "COV504 and OV56, various doses, 1 or 15 hours", "description": "(§4) The effect of CDK4/6-inhibition on Rb phosphorylation at S780 in CCNE1-amplified versus CCNE1-non-amplified cell lines was evaluated. […] One or 15 hours after treatment, the cells were harvested and total protein was extracted and analyzed by western blot (FIG. 8).\n(§5) Whole cell extracts were prepared using RIPA buffer (Thermo Scientific, 89900) with a Halt Protease and Phosphatase Inhibitor Cocktail (Thermo Scientific, 78440). Protein concentration was quantified with a BCA Protein Assay Kit (Thermo Scientific, 23225) and 40 μg of protein lysates were loaded for SDS-PAGE using precast gradient gels (Bio-Rad, Hercules, No. 456-1094). Samples were diluted in 5× Laemmli buffer (300 mM Tris-HCl pH 6.8, 10% SDS (w/v), 5% 2-mercaptoethanol, 25% glycerol (v/v), 0.1% bromophenol blue w/v) and boiled for 5 minutes. 35 μg of proteins were separated by 8-15% SDS-PAGE and transferred onto polyvinylidene fluoride (PVDF) membranes. Unspecific binding sites on the PVDF membranes were blocked with 5% non-fat milk in TEST (20 mM Tris-HCl, pH 7.6, 137 mM NaCl, 1% Tween-20). […] Images were captured by Luminescence/Fluorescence Imaging System Odyssey CLx Imager (LI-COR)."}, "[5]": {"test_system": "Rb phosphorylation at S780 in CCNE1-amplified cell lines (OVCAR3 and COV318)", "assay": "Western blot of Rb phosphorylation at S780, CCNE1-amplified cell lines", "format": "cell-based, human", "details": "OVCAR3 and COV318, various doses, 1 or 15 hours; listed as Palbociclib", "description": "as §4, §5"}, "COV318 cells": {"test_system": "COV318 cells", "assay": "Cell cycle analysis by FACS after p16 knockdown", "format": "cell-based, human", "details": "100 nM, 16 hours", "description": "To confirm the role of p16 in CDK2-sensitivity of CCNE1-amplified cells, COV318 cells were treated with control or p16-specific siRNA.\nas §3"}, "CDK2/Cyclin E1": {"molecular_target": "CDK2/Cyclin E1 (Homo sapiens (Human), UniProt P24941)", "assay": "CDK2/Cyclin E1 HTRF enzyme activity assay", "format": "biochemical", "details": "1 mM ATP", "description": "Assays are conducted in white 384-well polystyrene plates in a final reaction volume of 8 μL. […] HTRF signals are read after 1 hour at room temperature on a PHERAstar FS plate reader (BMG Labtech). Data is analyzed with IDBS XLFit and GraphPad Prism 5.0 software using a three or four parameter dose response curve to determine IC50 for each compound."}, "human JAK1": {"molecular_target": "human JAK1 (Homo sapiens, UniProt P23458)", "assay": "JAK inhibitory activity assay (JAK1)", "format": "biochemical", "details": "1 mM ATP", "description": "(§6) Compounds herein were tested for inhibitory activity of JAK targets according to the following in vitro assay described in Park et al., Analytical Biochemistry 1999, 269, 94-104. The catalytic domains of human JAK1 (a.a. 837-1142), Jak2 (a.a. 828-1132) and Jak3 (a.a. 781-1124) with an N-terminal His tag were expressed using baculovirus in insect cells and purified. The catalytic activity of JAK1 and JAK2 was assayed by measuring the phosphorylation of a biotinylated peptide. The phosphorylated peptide was detected by homogenous time resolved fluorescence (HTRF). Each enzyme reaction was carried out with or without test compound (11-point dilution), JAK enzyme, 500 nM peptide, adenosine triphosphate (ATP; 1 mM), and 2.0% dimethyl sulfoxide (DMSO) in assay buffer (50 mM Tris (pH 7.8) buffer, 100 mM NaCl, 5 mM DTT, and 0.1 mg/mL (0.01%) BSA). The peptide substrate (Biotin-[…]) was custom synthesized by Biosource International. Reactions were carried out at room temperature for 1 hour and then stopped with 10 μL 45 mM EDTA, 200 nM SA-APC, 4 nM Eu-Py20 in assay buffer (Perkin Elmer, Boston, Mass.). After incubation for 30 minutes at room temperature, the HTRF signal was measured on a PheraStar plate reader."}, "JAK2": {"molecular_target": "JAK2 (Homo sapiens (Human), UniProt O60674)", "sequence (O60674 828-1132)": "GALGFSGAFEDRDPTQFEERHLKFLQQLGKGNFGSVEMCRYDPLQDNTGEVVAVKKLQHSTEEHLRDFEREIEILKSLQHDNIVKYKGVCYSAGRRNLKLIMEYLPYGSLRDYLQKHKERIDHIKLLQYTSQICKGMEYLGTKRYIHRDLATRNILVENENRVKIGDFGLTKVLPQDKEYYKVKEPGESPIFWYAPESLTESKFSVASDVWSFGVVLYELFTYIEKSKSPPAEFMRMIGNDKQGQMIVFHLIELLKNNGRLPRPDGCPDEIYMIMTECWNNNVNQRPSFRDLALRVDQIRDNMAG", "assay": "JAK inhibitory activity assay (JAK2)", "format": "biochemical", "details": "1 mM ATP", "description": "as §6"}},
  "data": [
    {"compound": "CC(=O)c1c(C)c2cnc(Nc3ccc(N4CCNCC4)cn3)nc2n(C2CCCC2)c1=O", "note": "[palbociclib]", "values": [
      {"measurement": "IC50", "setting": "[1]", "result": "> 3000", "unit": "nM"},
      {"measurement": "inhibition of proliferation", "setting": "[2]", "result": "dose-dependent inhibition of the proliferation"},
      {"measurement": "inhibition of proliferation", "setting": "[2]; listed as Palbociclib", "result": "dose-dependent inhibition of proliferation"},
      {"measurement": "percentage of cells at the S phase", "setting": "[2]", "result": "decreased in CCNE1-non-amplified cell lines in a dose-dependent fashion"},
      {"measurement": "percentage of cells at the S phase", "setting": "[2]; listed as Palbociclib", "result": "selectively inhibits proliferation"},
      {"measurement": "inhibition of proliferation", "setting": "[3]", "result": "not in CCNE1-amplified cells"},
      {"measurement": "inhibition of proliferation", "setting": "[3]; listed as Palbociclib", "result": "not in amplified cell lines"},
      {"measurement": "percentage of cells at the S phase", "setting": "[3]; COV318 and OVCAR3, 16 hours after treatment, compared to DMSO", "result": "not significantly different"},
      {"measurement": "Rb phosphorylation at S780", "setting": "[4]", "result": "blocked Rb phosphorylation at S780"},
      {"measurement": "Rb phosphorylation at S780", "setting": "[4]; listed as Palbociclib", "result": "blocks RB phosphorylation at S780"},
      {"measurement": "Rb phosphorylation at S780", "setting": "[5]", "result": "not in amplified ovarian cells"}
    ]},
    {"compound": "C[C@@]1(O)CCC[C@H]1n1c(=O)ccc2cnc(NC3CCN(S(C)(=O)=O)CC3)nc21", "note": "[Compound A, 8-((1R,2R)-2-hydroxy-2-methylcyclopentyl)-2-((1-(methylsulfonyl)piperidin-4-yl)amino)pyrido[2,3-d]pyrimidin-7(8H)-one]", "values": [
      {"measurement": "IC50", "setting": "[1]", "result": 37, "unit": "nM"},
      {"measurement": "percentage of S phase cells", "setting": "COV318 cells; control siRNA-treated COV318 cells", "result": "significantly decreased"},
      {"measurement": "percentage of S phase cells", "setting": "COV318 cells; p16 knocked down COV318 cells, compared to DMSO", "result": "not significantly decreased"}
    ]},
    {"compound": "C[C@]1(N)C[C@@H](n2cc(-c3nc(NC4CCN(S(=O)(=O)C5CC5)CC4)ncc3C(F)(F)F)cn2)C1", "note": "[Example 44, 4-(1-((1s,3s)-3-Amino-3-methylcyclobutyl)-1H-pyrazol-4-yl)-N-(1-(cyclopropylsulfonyl)piperidin-4-yl)-5-(trifluoromethyl)pyrimidin-2-amine]", "values": [
      {"measurement": "IC50", "setting": "CDK2/Cyclin E1", "result": "< 50", "unit": "nM"},
      {"measurement": "IC50", "setting": "human JAK1", "result": "≥ 10000", "unit": "nM"},
      {"measurement": "IC50", "setting": "JAK2", "result": "≥ 10000", "unit": "nM"}
    ]},
    {"compound": "CC(C)(O)Cn1cc(-c2nc(NC3CCN(S(=O)(=O)C4CC4)CC3)ncc2C(F)(F)F)cn1", "note": "[Example 51, 1-(4-(2-((1-(Cyclopropylsulfonyl)piperidin-4-yl)amino)-5-(trifluoromethyl)pyrimidin-4-yl)-1H-pyrazol-1-yl)-2-methylpropan-2-ol]", "values": [
      {"measurement": "IC50", "setting": "CDK2/Cyclin E1", "result": "< 50", "unit": "nM"},
      {"measurement": "IC50", "setting": "human JAK1", "result": "≥ 10000", "unit": "nM"},
      {"measurement": "IC50", "setting": "JAK2", "result": "≥ 10000", "unit": "nM"}
    ]}
  ]
}
